The text below walks through data of patent US9320771B2, “TTO-based wide spectrum therapeutics, disinfectants and anesthetics for use in aquaculture” (priority 2006, dated 2016).

For test [1], the system named is atypical Aeromonas salmonicida. In words: Culture and sensitivity test, zones of inhibition on T.S.A. culture media. In kind it is cell-based. The settings on record: 24 h at 24° C.; for zone of inhibition at 30 µg/disc: Aeromonas salmonicida, 24 h, read-out: Zones of inhibition (mm) after 24 h. The method, then: Four TTO-based compositions of the present invention, namely Compositions A-D (See Example 7) were evaluated in their efficacy to inhibit and prevent growth of atypical Aeromonas salmonicida, the causative agent of ulcerative disease of carps on T.S.A. culture media. Every culture plate was inoculated with Gram-negative Aeromonas Bacteria obtained from ulcerated Goldfish. Plates were sterile cultures incubated for 24 h at a temperature of 24° C. Inhibition of the TTO-based compositions was compared simultaneously with 2 familiar anti-bacterial medications, namely (i) Tetracycline (30 μg per disc); and (ii), Norfloxacin (10 30 μg per disc). Comparison discs were supplemented in the lab with 20 to 30 μg of the TTO-based compositions each: 50% Composition D; 50% Composition C; and 66% Composition B (See Example 7).

Test [2] has as its system Red-clawed Crayfish (Cherax Quadricarinatus). The test is described as follows: Growth rate of Red-clawed Crayfish. In kind it is in vivo. The settings on record: compared to the control group as base reference. How it is done:
In a separate experiment the growth rate of Red-clawed Crayfish treated with the TTO formulation was tested in comparison to an untreated tank and to two other disinfecting agents: formaldehyde and sodium bromide (e.g., commercially available Bromex™).

A further test concerns viral diseases of fish. The settings on record: cited from earlier work.

The structures appear in SMILES notation. Where two headings read alike, the source gives them in different places.

On to `CCn1cc(C(=O)O)c(=O)c2cc(F)c(N3CCNCC3)cc21` [Norfloxacin], for which, in test [1] (10 30 μg per disc, listed as Nx.), the “Zones of inhibition (mm) after 24 h” value is 20 mm. The zone of inhibition at 30 µg/disc in test [1] (10 30 μg per disc) is 28 mm.
As to `CN(C)[C@@H]1C(O)=C(C(N)=O)C(=O)[C@@]2(O)C(O)=C3C(=O)c4c(O)cccc4[C@@](C)(O)[C@H]3C[C@@H]12` [Tetracycline], in test [1] (30 μg per disc), the “Zones of inhibition (mm) after 24 h” value was found to be 22 mm and the zone of inhibition at 30 µg/disc came to 18 mm.
In the case of `C=O` [formaldehyde], the growth rates entry in test [2] is “about 0.08 % per day”.
In the case of `CN(C)c1ccc(C(=C2C=CC(=[N+](C)C)C=C2)c2ccccc2)cc1` [malachite green], the “effectiveness against viral diseases of fish” value in the test on viral diseases of fish is given as “not effective”.
